Measured values published in patent US11028095B2, “Spiro-lactam and bis-spiro-lactam NMDA receptor modulators and uses thereof” (Aptinyx Inc., priority 2016, dated 2021).
pEC50: −log10 of the molar value. Read-outs that look alike come from different tables or passages of the source.

Key:
Format in all cases: biochemical
[1] = target: T1, NMDAR2A expressing HEK cell membranes (Homo sapiens, UniProt Q05586+Q12879); assay: NMDAR agonist assay, [3H]MK-801 binding, NMDAR2A; conditions: for EC50 / Emax: 50 μM glutamate; for EC50: read-out: NMDAR2A: log EC50 (converted); for Emax: relative to 1 mM glycine, read-out: NMDAR2A: % maximal [3H]MK-801 binding relative to 1 mM glycine
T1 construct: expressed in transfected cells; host or cells: HEK cells (membrane extract)
Description: (§1) (nonequilibrium conditions).
(§2) The baseline value was determined from the best fit curve of the DPM values modeled using the GraphPad program and the log(agonist) vs. response(three parameters) algorithm was then subtracted from all points in the dataset.

[2] = target: T2, NMDAR2B expressing HEK cell membranes (Homo sapiens, UniProt Q13224); assay: NMDAR agonist assay, [3H]MK-801 binding, NMDAR2B; conditions: 50 μM glutamate; relative to 1 mM glycine
T2 construct: expressed in transfected cells; host or cells: HEK cells (membrane extract)
Description: as §1, §2

[3] = target: T3, NMDAR2B expressing HEK cell membranes (Homo sapiens, UniProt Q05586+Q13224); assay: NMDAR agonist assay, [3H]MK-801 binding, NMDAR2B; conditions: for EC50: read-out: NMDAR2B log EC50 (converted)
T3 construct: expressed in transfected cells; host or cells: HEK cells (membrane extract)
Description: as §1, §2

[4] = target: T4, NMDAR2D expressing HEK cell membranes (Homo sapiens, UniProt O15399+Q05586); assay: NMDAR agonist assay, [3H]MK-801 binding, NMDAR2D; conditions: 50 μM glutamate; for EC50: [3H]MK-801 binding, read-out: NMDAR2D: log EC50 (converted); for Emax: relative to 1 mM glycine, read-out: NMDAR2D: % maximal [3H]MK-801 binding relative to 1 mM glycine
T4 construct: expressed in transfected cells; host or cells: HEK cells (membrane extract)
Description: as §1, §2

[5] = target: T5, NMDAR2A expressing HEK cell membranes (Homo sapiens, UniProt Q12879); assay: NMDAR agonist assay, [3H]MK-801 binding, NMDAR2A; conditions: 50 μM glutamate; relative to 1 mM glycine
T5 construct: expressed in transfected cells; host or cells: HEK cells (membrane extract)
Description: as §1, §2

[6] = 50 μM glutamate, [3H]MK-801 binding

T5 sequence (Q12879 23-1464, other chains not shown): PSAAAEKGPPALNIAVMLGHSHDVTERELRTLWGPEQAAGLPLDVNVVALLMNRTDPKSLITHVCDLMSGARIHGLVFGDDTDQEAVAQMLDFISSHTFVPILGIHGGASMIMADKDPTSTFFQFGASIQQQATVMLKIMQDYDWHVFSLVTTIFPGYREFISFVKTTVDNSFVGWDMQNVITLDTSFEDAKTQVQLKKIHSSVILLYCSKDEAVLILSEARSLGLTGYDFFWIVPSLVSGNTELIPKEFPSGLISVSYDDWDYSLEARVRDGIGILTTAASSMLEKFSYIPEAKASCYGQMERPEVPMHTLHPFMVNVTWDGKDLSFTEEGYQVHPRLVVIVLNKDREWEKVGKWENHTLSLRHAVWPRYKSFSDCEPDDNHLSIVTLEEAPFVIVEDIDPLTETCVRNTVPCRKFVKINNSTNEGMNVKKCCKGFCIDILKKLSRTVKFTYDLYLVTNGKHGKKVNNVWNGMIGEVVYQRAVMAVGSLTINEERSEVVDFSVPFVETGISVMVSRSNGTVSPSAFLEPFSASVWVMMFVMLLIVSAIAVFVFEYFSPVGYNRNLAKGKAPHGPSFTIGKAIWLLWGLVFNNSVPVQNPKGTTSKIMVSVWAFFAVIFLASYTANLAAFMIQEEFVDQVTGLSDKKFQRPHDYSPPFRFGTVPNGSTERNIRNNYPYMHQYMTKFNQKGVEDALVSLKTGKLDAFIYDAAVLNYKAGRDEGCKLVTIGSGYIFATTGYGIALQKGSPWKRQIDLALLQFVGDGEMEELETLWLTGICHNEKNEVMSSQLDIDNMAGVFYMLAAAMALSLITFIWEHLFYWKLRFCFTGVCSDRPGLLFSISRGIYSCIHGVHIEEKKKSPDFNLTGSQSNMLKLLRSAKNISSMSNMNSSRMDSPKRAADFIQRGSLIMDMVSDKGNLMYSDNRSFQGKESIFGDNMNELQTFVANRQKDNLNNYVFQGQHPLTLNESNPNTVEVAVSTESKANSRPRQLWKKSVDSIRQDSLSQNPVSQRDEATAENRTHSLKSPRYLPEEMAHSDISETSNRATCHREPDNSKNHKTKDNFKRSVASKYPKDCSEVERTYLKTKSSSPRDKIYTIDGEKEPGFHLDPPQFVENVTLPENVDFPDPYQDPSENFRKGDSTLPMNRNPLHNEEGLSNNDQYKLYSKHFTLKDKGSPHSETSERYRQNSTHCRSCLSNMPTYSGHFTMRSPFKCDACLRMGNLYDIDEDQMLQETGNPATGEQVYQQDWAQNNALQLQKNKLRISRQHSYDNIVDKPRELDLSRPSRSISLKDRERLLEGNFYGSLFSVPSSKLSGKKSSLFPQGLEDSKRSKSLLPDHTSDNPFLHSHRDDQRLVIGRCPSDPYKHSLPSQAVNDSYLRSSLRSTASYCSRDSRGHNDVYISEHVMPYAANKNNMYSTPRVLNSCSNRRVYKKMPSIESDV
T1 sequence (Q12879 23-1464, other chains not shown): as above
T3 sequence (Q13224 27-1484, other chains not shown): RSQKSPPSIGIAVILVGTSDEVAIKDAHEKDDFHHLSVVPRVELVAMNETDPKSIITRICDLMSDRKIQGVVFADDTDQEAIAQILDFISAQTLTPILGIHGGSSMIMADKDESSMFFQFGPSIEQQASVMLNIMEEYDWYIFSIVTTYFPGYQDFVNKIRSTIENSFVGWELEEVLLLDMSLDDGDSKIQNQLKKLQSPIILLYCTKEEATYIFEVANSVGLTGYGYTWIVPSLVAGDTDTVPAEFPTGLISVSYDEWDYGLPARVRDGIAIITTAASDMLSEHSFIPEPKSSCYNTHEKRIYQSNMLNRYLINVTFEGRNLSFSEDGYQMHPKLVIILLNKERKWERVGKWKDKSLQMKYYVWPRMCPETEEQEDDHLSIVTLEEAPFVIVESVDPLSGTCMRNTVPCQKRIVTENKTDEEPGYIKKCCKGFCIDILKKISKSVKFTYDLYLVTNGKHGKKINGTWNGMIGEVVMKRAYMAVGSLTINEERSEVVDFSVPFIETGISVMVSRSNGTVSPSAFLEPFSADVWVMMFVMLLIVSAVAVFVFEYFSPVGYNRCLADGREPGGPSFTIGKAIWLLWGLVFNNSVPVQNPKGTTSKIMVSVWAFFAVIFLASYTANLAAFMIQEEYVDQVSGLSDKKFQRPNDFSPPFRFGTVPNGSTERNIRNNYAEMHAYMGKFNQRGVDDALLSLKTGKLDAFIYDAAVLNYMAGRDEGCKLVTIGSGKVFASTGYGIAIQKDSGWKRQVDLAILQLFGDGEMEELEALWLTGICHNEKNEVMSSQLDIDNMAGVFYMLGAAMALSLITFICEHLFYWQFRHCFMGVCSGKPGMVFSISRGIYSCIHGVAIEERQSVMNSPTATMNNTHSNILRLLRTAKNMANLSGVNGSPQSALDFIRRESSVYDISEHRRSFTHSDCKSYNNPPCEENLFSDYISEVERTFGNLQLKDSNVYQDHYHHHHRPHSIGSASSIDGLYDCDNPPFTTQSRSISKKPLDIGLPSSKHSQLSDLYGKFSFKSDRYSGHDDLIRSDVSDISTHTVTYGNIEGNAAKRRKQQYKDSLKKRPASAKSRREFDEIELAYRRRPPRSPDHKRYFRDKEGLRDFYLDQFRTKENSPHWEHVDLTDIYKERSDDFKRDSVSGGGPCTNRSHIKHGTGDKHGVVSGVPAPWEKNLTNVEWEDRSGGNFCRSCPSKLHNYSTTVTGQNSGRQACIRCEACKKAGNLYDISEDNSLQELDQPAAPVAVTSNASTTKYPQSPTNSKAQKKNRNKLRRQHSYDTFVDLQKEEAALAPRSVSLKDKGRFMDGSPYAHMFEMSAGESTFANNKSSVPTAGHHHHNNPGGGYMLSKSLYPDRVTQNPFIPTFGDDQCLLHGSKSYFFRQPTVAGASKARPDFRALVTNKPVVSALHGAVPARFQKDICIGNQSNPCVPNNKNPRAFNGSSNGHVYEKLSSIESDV

With `CC(C)CN1C(C(=O)N[C@H](C(N)=O)[C@@H](C)O)CCC12CNC2=O` (single isomer, unassigned) [BA] the EC50 ([1]; [3H]MK-801 binding) was under 1 nM, the Emax [1] was under 100% and the “NMDAR2B: % maximal [3H]MK-801 binding relative to 1 mM glycine” value [2] was “− (−=0)”. For the same compound, the EC50 [3, 6] was over 100 nM, the EC50 [4] was under 1 nM and the Emax [4] was under 100%.
`CC(C)(C)OC(=O)N1C(C(N)=O)CCC12CNC2=O` (single isomer, unassigned) [BE] was tested, and the Emax [1] was under 100%, the “NMDAR2B: % maximal [3H]MK-801 binding relative to 1 mM glycine” value [2] was “− (−=0)” and the EC50 [3, 6] was over 100 nM. For the same compound, the EC50 [4] was under 1 nM and the Emax [4] was under 100%.
`O=C1NCC12CN(Cc1ccccc1)C1(CNC1=O)C2` (single isomer, unassigned) [DQ, 10-benzyl-2,8,10-triazadispiro[3.1.3^6.2^4]undecane-1,7-dione] was tested, and the EC50 ([1]; [3H]MK-801 binding) was over 100 nM, the “NMDAR2A: % maximal [3H]MK-801 binding relative to 1 mM glycine” value [5] was “− (−=0)” and the “NMDAR2B: % maximal [3H]MK-801 binding relative to 1 mM glycine” value [2] was “+ (<100%=+)”. For the same compound, the EC50 [3, 6] was under 1 nM.
With `C[C@@H](O)[C@H](NC1CN(C(=O)OC(C)(C)C)C2(CNC2=O)C1)C(N)=O` (single isomer, unassigned) [CG] the EC50 ([1]; [3H]MK-801 binding) was under 1 nM, the “NMDAR2A: % maximal [3H]MK-801 binding relative to 1 mM glycine” value [5] was “+ (<100%=+)” and the “NMDAR2B: % maximal [3H]MK-801 binding relative to 1 mM glycine” value [2] was “− (−=0)”. It also gave an EC50 [3, 6] of over 100 nM and an Emax ([3]; 50 μM glutamate, relative to 1 mM glycine, read-out: NMDAR2B: % maximal [3H]MK-801 binding relative to 1 mM glycine) of 0%.
For `CC(O)C(C(N)=O)N(C)CC1CCC2(CNC2=O)N1` (single isomer, unassigned) [CV], the EC50 ([1]; [3H]MK-801 binding) was under 1 nM, the “NMDAR2A: % maximal [3H]MK-801 binding relative to 1 mM glycine” value [5] was “+ (<100%=+)” and the “NMDAR2B: % maximal [3H]MK-801 binding relative to 1 mM glycine” value [2] was “++ (>100%=++)”. For the same compound, the EC50 [3, 6] was under 1 nM.
In the case of `CC(C)(C)OC(=O)N1C(C(N)=O)CCC12CNC2=O` (single isomer, unassigned) [BF], the EC50 ([1]; [3H]MK-801 binding) was under 1 nM, the “NMDAR2A: % maximal [3H]MK-801 binding relative to 1 mM glycine” value [5] was “+ (<100%=+)” and the “NMDAR2B: % maximal [3H]MK-801 binding relative to 1 mM glycine” value [2] was “+ (<100%=+)”. For the same compound, the EC50 [3, 6] was under 1 nM.
With `CC(C)(C)OC(=O)N1CC2(CN(OCc3ccccc3)C2=O)CC12CN(OCc1ccccc1)C2=O` (single isomer, unassigned) [AX, tert-butyl 2,8-bis(benzyloxy)-1,7-dioxo-2,8,10-triazadispiro[3.1.36.24]undecane-10-carboxylate] the EC50 ([1]; [3H]MK-801 binding) was under 1 nM, the “NMDAR2A: % maximal [3H]MK-801 binding relative to 1 mM glycine” value [5] was “+ (<100%=+)” and the “NMDAR2B: % maximal [3H]MK-801 binding relative to 1 mM glycine” value [2] was “− (−=0)”. For the same compound, the EC50 [3, 6] was over 100 nM.
In the case of `CC(C)C(=O)N1C(C(=O)N[C@H](C(N)=O)[C@@H](C)O)CCC12CNC2=O` (single isomer, unassigned) [AR], the EC50 ([1]; [3H]MK-801 binding) was over 100 nM, the “NMDAR2A: % maximal [3H]MK-801 binding relative to 1 mM glycine” value [5] was “− (−=0)” and the “NMDAR2B: % maximal [3H]MK-801 binding relative to 1 mM glycine” value [2] was “− (−=0)”. The EC50 [3, 6] was over 100 nM.
With `O=C1NCC12CN(Cc1ccccc1)C1(CNC1=O)C2` (single isomer, unassigned) [DP, 10-benzyl-2,8,10-triazadispiro[3.1.3^6.2^4]undecane-1,7-dione] the EC50 ([1]; [3H]MK-801 binding) was under 1 nM, the “NMDAR2A: % maximal [3H]MK-801 binding relative to 1 mM glycine” value [5] was “+ (<100%=+)” and the “NMDAR2B: % maximal [3H]MK-801 binding relative to 1 mM glycine” value [2] was “++ (>100%=++)”. For the same compound, the EC50 [3, 6] was under 1 nM.
For `CN1C2(CCC13CNC3=O)CNC2=O` (single isomer, unassigned) [AB-1, 5-methyl-2,5,8-triazadispiro[3.1.36.24]undecane-1,7-dione], the pEC50 ([1]; NMDAR2A: log EC50, 50 μM glutamate, [3H]MK-801 binding) was over 9.00, the “NMDAR2A: % maximal [3H]MK-801 binding relative to 1 mM glycine” value [5] was “+ (<100%=+)” and the “NMDAR2B: % maximal [3H]MK-801 binding relative to 1 mM glycine” value [2] was “− (−=0)”. For the same compound, the pEC50 ([3]; NMDAR2B: log EC50, 50 μM glutamate, [3H]MK-801 binding) was under 7.00.
For `C[C@@H](O)[C@H](NCC1CCC2(CNC2=O)N1C(=O)OC(C)(C)C)C(=O)N(C)C` (single isomer, unassigned) [BT], the EC50 ([1]; [3H]MK-801 binding) was under 1 nM, the “NMDAR2A: % maximal [3H]MK-801 binding relative to 1 mM glycine” value [5] was “+ (<100%=+)” and the “NMDAR2B: % maximal [3H]MK-801 binding relative to 1 mM glycine” value [2] was “− (−=0)”. It also gave an EC50 [3, 6] of over 100 nM.
